System: Hepatotoxicity
Test: FDA HLAED, gamma-glutamyl transferase (GGT) increase
Settings: human
For GGT Increase - Index Value in this document: reference of the scale not given here.
For LDH Increase - Index Value in this document: reference of the scale not given here.

| Structure (SMILES) | GGT Increase - Activity Score | GGT Increase - Index Value | GGT Increase - Number of Reports |
| --- | --- | --- | --- |
| O=C1CC2(CCCC2)CC(=O)N1CCCCN1CCN(c2ncccn2)CC1 [BUSPIRONE] | Inactive | 0.6 | < 4 |
| CN(Cc1ccc(C(C)(C)C)cc1)Cc1cccc2ccccc12 [BUTENAFINE] | Inactive | 0 | < 4 |
| Clc1ccc(CCC(Cn2ccnc2)Sc2c(Cl)cccc2Cl)cc1 (configuration not stated) [BUTOCONAZOLE] | Inactive | 0 | < 4 |
| Oc1ccc2c(c1)[C@@]13CCCC[C@@]1(O)[C@@H](C2)N(CC1CCC1)CC3 [BUTORPHANOL] | Inactive | 0 | < 4 |
| C=CCN1C[C@H](C(=O)N(CCCN(C)C)C(=O)NCC)C[C@@H]2c3cccc4[nH]cc(c34)C[C@H]21 [CABERGOLINE] | Inactive | 0 | < 4 |
| C=C1/C(=C\C=C2/CCC[C@]3(C)[C@@H]([C@H](C)/C=C/[C@@H](O)C4CC4)CC[C@@H]23)C[C@@H](O)C[C@@H]1O [CALCIPOTRIENE] | Inactive | 0 | < 4 |
| C=C1/C(=C\C=C2/CCC[C@]3(C)[C@@H]([C@H](C)CCCC(C)(C)O)CC[C@@H]23)C[C@@H](O)C[C@@H]1O [CALCITRIOL] | Inactive | 0 | < 4 |
| C[C@H](CS)C(=O)N1CCC[C@H]1C(=O)O [CAPTOPRIL] | Inactive | 0 | < 4 |
| CC(C)(C)NCC(O)COc1cccc2c1CCC(=O)N2 (configuration not stated) [CARTEOLOL] | Inactive | 0 | < 4 |

System: Hepatotoxicity
Test: FDA HLAED, liver enzyme composite activity
Settings: human

| Structure (SMILES) | Composite Activity - Active | Composite Activity - Marginal | Composite Activity - Score |
| --- | --- | --- | --- |
| O=C1CC2(CCCC2)CC(=O)N1CCCCN1CCN(c2ncccn2)CC1 [BUSPIRONE] | 0 | 1 | Inactive |
| CN(Cc1ccc(C(C)(C)C)cc1)Cc1cccc2ccccc12 [BUTENAFINE] | 0 | 0 | Inactive |
| Clc1ccc(CCC(Cn2ccnc2)Sc2c(Cl)cccc2Cl)cc1 (configuration not stated) [BUTOCONAZOLE] | 0 | 0 | Inactive |
| Oc1ccc2c(c1)[C@@]13CCCC[C@@]1(O)[C@@H](C2)N(CC1CCC1)CC3 [BUTORPHANOL] | 0 | 0 | Inactive |
| C=CCN1C[C@H](C(=O)N(CCCN(C)C)C(=O)NCC)C[C@@H]2c3cccc4[nH]cc(c34)C[C@H]21 [CABERGOLINE] | 0 | 0 | Inactive |
| C=C1/C(=C\C=C2/CCC[C@]3(C)[C@@H]([C@H](C)/C=C/[C@@H](O)C4CC4)CC[C@@H]23)C[C@@H](O)C[C@@H]1O [CALCIPOTRIENE] | 0 | 0 | Inactive |
| C=C1/C(=C\C=C2/CCC[C@]3(C)[C@@H]([C@H](C)CCCC(C)(C)O)CC[C@@H]23)C[C@@H](O)C[C@@H]1O [CALCITRIOL] | 0 | 0 | Inactive |
| C[C@H](CS)C(=O)N1CCC[C@H]1C(=O)O [CAPTOPRIL] | 0 | 0 | Inactive |
| CC(C)(C)NCC(O)COc1cccc2c1CCC(=O)N2 (configuration not stated) [CARTEOLOL] | 0 | 0 | Inactive |

System: Hepatotoxicity
Test: FDA HLAED, lactate dehydrogenase (LDH) increase
Settings: human

| Structure (SMILES) | LDH Increase - Activity Score | LDH Increase - Index Value | LDH Increase - Number of Reports |
| --- | --- | --- | --- |
| O=C1CC2(CCCC2)CC(=O)N1CCCCN1CCN(c2ncccn2)CC1 [BUSPIRONE] | Inactive | 0.4 | < 4 |
| CN(Cc1ccc(C(C)(C)C)cc1)Cc1cccc2ccccc12 [BUTENAFINE] | Inactive | 0 | < 4 |
| Clc1ccc(CCC(Cn2ccnc2)Sc2c(Cl)cccc2Cl)cc1 (configuration not stated) [BUTOCONAZOLE] | Inactive | 0 | < 4 |
| Oc1ccc2c(c1)[C@@]13CCCC[C@@]1(O)[C@@H](C2)N(CC1CCC1)CC3 [BUTORPHANOL] | Inactive | 0 | < 4 |
| C=CCN1C[C@H](C(=O)N(CCCN(C)C)C(=O)NCC)C[C@@H]2c3cccc4[nH]cc(c34)C[C@H]21 [CABERGOLINE] | Inactive | 0 | < 4 |
| C=C1/C(=C\C=C2/CCC[C@]3(C)[C@@H]([C@H](C)/C=C/[C@@H](O)C4CC4)CC[C@@H]23)C[C@@H](O)C[C@@H]1O [CALCIPOTRIENE] | Inactive | 0 | < 4 |
| C=C1/C(=C\C=C2/CCC[C@]3(C)[C@@H]([C@H](C)CCCC(C)(C)O)CC[C@@H]23)C[C@@H](O)C[C@@H]1O [CALCITRIOL] | Inactive | 0 | < 4 |
| C[C@H](CS)C(=O)N1CCC[C@H]1C(=O)O [CAPTOPRIL] | Inactive | 0.4 | < 4 |
| CC(C)(C)NCC(O)COc1cccc2c1CCC(=O)N2 (configuration not stated) [CARTEOLOL] | Inactive | 0.5 | < 4 |

System: Hepatotoxicity
Test: FDA HLAED, serum glutamic pyruvic transaminase (SGPT) increase
Settings: human

| Structure (SMILES) | SGPT Increase - Activity Score | SGPT Increase - Index Value | SGPT Increase - Number of Reports |
| --- | --- | --- | --- |
| O=C1CC2(CCCC2)CC(=O)N1CCCCN1CCN(c2ncccn2)CC1 [BUSPIRONE] | Marginally Active | 3.1 | >= 4 |
| CN(Cc1ccc(C(C)(C)C)cc1)Cc1cccc2ccccc12 [BUTENAFINE] | Inactive | 0 | < 4 |
| Clc1ccc(CCC(Cn2ccnc2)Sc2c(Cl)cccc2Cl)cc1 (configuration not stated) [BUTOCONAZOLE] | Inactive | 0.2 | < 4 |
| Oc1ccc2c(c1)[C@@]13CCCC[C@@]1(O)[C@@H](C2)N(CC1CCC1)CC3 [BUTORPHANOL] | Inactive | 0 | < 4 |
| C=CCN1C[C@H](C(=O)N(CCCN(C)C)C(=O)NCC)C[C@@H]2c3cccc4[nH]cc(c34)C[C@H]21 [CABERGOLINE] | Inactive | 0 | < 4 |
| C=C1/C(=C\C=C2/CCC[C@]3(C)[C@@H]([C@H](C)/C=C/[C@@H](O)C4CC4)CC[C@@H]23)C[C@@H](O)C[C@@H]1O [CALCIPOTRIENE] | Inactive | 0 | < 4 |
| C=C1/C(=C\C=C2/CCC[C@]3(C)[C@@H]([C@H](C)CCCC(C)(C)O)CC[C@@H]23)C[C@@H](O)C[C@@H]1O [CALCITRIOL] | Inactive | 0 | < 4 |
| C[C@H](CS)C(=O)N1CCC[C@H]1C(=O)O [CAPTOPRIL] | Inactive | 0.7 | >= 4 |
| CC(C)(C)NCC(O)COc1cccc2c1CCC(=O)N2 (configuration not stated) [CARTEOLOL] | Inactive | 0.5 | < 4 |

System: Hepatotoxicity
Test: FDA HLAED, alkaline phosphatase increase
Settings: human

| Structure (SMILES) | Alkaline Phosphatase Increase - Activity Score | Alkaline Phosphatase Increase - Index Value | Alkaline Phosphatase Increase - Number of Reports |
| --- | --- | --- | --- |
| O=C1CC2(CCCC2)CC(=O)N1CCCCN1CCN(c2ncccn2)CC1 [BUSPIRONE] | Inactive | 0.9 | >= 4 |
| CN(Cc1ccc(C(C)(C)C)cc1)Cc1cccc2ccccc12 [BUTENAFINE] | Inactive | 0 | < 4 |
| Clc1ccc(CCC(Cn2ccnc2)Sc2c(Cl)cccc2Cl)cc1 (configuration not stated) [BUTOCONAZOLE] | Inactive | 0.2 | < 4 |
| Oc1ccc2c(c1)[C@@]13CCCC[C@@]1(O)[C@@H](C2)N(CC1CCC1)CC3 [BUTORPHANOL] | Inactive | 0 | < 4 |
| C=CCN1C[C@H](C(=O)N(CCCN(C)C)C(=O)NCC)C[C@@H]2c3cccc4[nH]cc(c34)C[C@H]21 [CABERGOLINE] | Inactive | 0 | < 4 |
| C=C1/C(=C\C=C2/CCC[C@]3(C)[C@@H]([C@H](C)/C=C/[C@@H](O)C4CC4)CC[C@@H]23)C[C@@H](O)C[C@@H]1O [CALCIPOTRIENE] | Inactive | 0 | < 4 |
| C=C1/C(=C\C=C2/CCC[C@]3(C)[C@@H]([C@H](C)CCCC(C)(C)O)CC[C@@H]23)C[C@@H](O)C[C@@H]1O [CALCITRIOL] | Inactive | 0 | < 4 |
| C[C@H](CS)C(=O)N1CCC[C@H]1C(=O)O [CAPTOPRIL] | Inactive | 1.1 | >= 4 |
| CC(C)(C)NCC(O)COc1cccc2c1CCC(=O)N2 (configuration not stated) [CARTEOLOL] | Inactive | 0 | < 4 |

System: Hepatotoxicity
Test: FDA HLAED, serum glutamic oxaloacetic transaminase (SGOT) increase
Settings: human

| Structure (SMILES) | SGOT Increase - Activity Score | SGOT Increase - Index Value | SGOT Increase - Number of Reports |
| --- | --- | --- | --- |
| O=C1CC2(CCCC2)CC(=O)N1CCCCN1CCN(c2ncccn2)CC1 [BUSPIRONE] | Inactive | 2.4 | >= 4 |
| CN(Cc1ccc(C(C)(C)C)cc1)Cc1cccc2ccccc12 [BUTENAFINE] | Inactive | 0 | < 4 |
| Clc1ccc(CCC(Cn2ccnc2)Sc2c(Cl)cccc2Cl)cc1 (configuration not stated) [BUTOCONAZOLE] | Inactive | 0 | < 4 |
| Oc1ccc2c(c1)[C@@]13CCCC[C@@]1(O)[C@@H](C2)N(CC1CCC1)CC3 [BUTORPHANOL] | Inactive | 0 | < 4 |
| C=CCN1C[C@H](C(=O)N(CCCN(C)C)C(=O)NCC)C[C@@H]2c3cccc4[nH]cc(c34)C[C@H]21 [CABERGOLINE] | Inactive | 0 | < 4 |
| C=C1/C(=C\C=C2/CCC[C@]3(C)[C@@H]([C@H](C)/C=C/[C@@H](O)C4CC4)CC[C@@H]23)C[C@@H](O)C[C@@H]1O [CALCIPOTRIENE] | Inactive | 0.3 | < 4 |
| C=C1/C(=C\C=C2/CCC[C@]3(C)[C@@H]([C@H](C)CCCC(C)(C)O)CC[C@@H]23)C[C@@H](O)C[C@@H]1O [CALCITRIOL] | Inactive | 0 | < 4 |
| C[C@H](CS)C(=O)N1CCC[C@H]1C(=O)O [CAPTOPRIL] | Inactive | 1.5 | >= 4 |
| CC(C)(C)NCC(O)COc1cccc2c1CCC(=O)N2 (configuration not stated) [CARTEOLOL] | Inactive | 0.5 | < 4 |

— ChEMBL document CHEMBL1697781, “Assessment of the health effects of chemicals in humans: II. Construction of an adverse effects database for QSAR modeling” (Curr Drug Discov Technol, 2004)
